Experimental data taken from publication PMC9395446, “First-in-human phase 1/1b study to evaluate sitravatinib in patients with advanced solid tumors” (Investigational New Drugs, 2022).

Test: Safety in phase 1/1b study (DLTs, TRAEs, TEAEs; CTCAE v4.03)
Assay type: in vivo, human
Description: Safety assessments included evaluation of DLTs, AEs, physical examinations, vital sign measurements, electrocardiogram recordings and laboratory tests.
A DLT was defined as a grade ≥ 4 hematologic abnormality lasting ≥ 4 days; grade 3 thrombocytopenia with clinically significant bleeding; febrile neutropenia; clinically significant grade ≥ 3 non-hematologic AEs not related to underlying malignancy; intolerable grade 2 AEs; or toxicity resulting in an inability to deliver 80% of the dose during the first treatment cycle.
The safety population included all patients who received ≥ 1 dose of sitravatinib. […] The PK evaluable population included all patients with sufficient concentration-time data for PK parameter evaluation. The modified intent-to-treat (mITT) population included all phase 1b patients who received ≥ 1 dose of study drug.

## COCCNCc1ccc(-c2cc3nccc(Oc4ccc(NC(=O)C5(C(=O)Nc6ccc(F)cc6)CC5)cc4F)c3s2)nc1 [sitravatinib, Sitravatinib]
120 mg
  Patients discontinued due to TRAEs: 11.3%
120 mg arm
  Patients with grade ≥ 3 TRAEs: 51.6%
  Patients with serious TRAEs: 8.1%
120 mg phase 1b
  ALT increased TEAE, any grade: 17 (27.4) n (%)
  ALT increased TEAE, grade ≥3: 1 (1.6) n (%)
  ALT increased TRAE, any grade: 15 (24.2) n (%)
  ALT increased TRAE, grade ≥3: 1 (1.6) n (%)
  AST increased TEAE, any grade: 16 (25.8) n (%)
  AST increased TEAE, grade ≥3: 0 n (%)
  AST increased TRAE, any grade: 14 (22.6) n (%)
  AST increased TRAE, grade ≥3: 0 n (%)
  Abdominal pain TEAE, any grade: 14 (22.6) n (%)
  Abdominal pain TEAE, grade ≥3: 3 (4.8) n (%)
  Abdominal pain TRAE, any grade: 8 (12.9) n (%)
  Abdominal pain TRAE, grade ≥3: 0 n (%)
  Anemia TEAE, any grade: 10 (16.1) n (%)
  Anemia TEAE, grade ≥3: 3 (4.8) n (%)
  Any TEAE: 60 (96.8) n (%)
  Any TRAE: 58 (93.5) n (%)
  Asthenia TEAE, any grade: 7 (11.3) n (%)
  Asthenia TEAE, grade ≥3: 0 n (%)
  Back pain TEAE, any grade: 6 (9.7) n (%)
  Back pain TEAE, grade ≥3: 0 n (%)
  Blood and lymphatic system disorders TEAE, any grade: 16 (25.8) n (%)
  Blood and lymphatic system disorders TEAE, grade ≥3: 7 (11.3) n (%)
  Blood creatinine increased TEAE, any grade: 3 (4.8) n (%)
  Blood creatinine increased TEAE, grade ≥3: 0 n (%)
  Cardiac disorders TEAE, any grade: 6 (9.7) n (%)
  Cardiac disorders TEAE, grade ≥3: 2 (3.2) n (%)
  Constipation TEAE, any grade: 21 (33.9) n (%)
  Constipation TEAE, grade ≥3: 0 n (%)
  Constipation TRAE, any grade: 11 (17.7) n (%)
  Constipation TRAE, grade ≥3: 0 n (%)
  Cough TEAE, any grade: 7 (11.3) n (%)
  Cough TEAE, grade ≥3: 0 n (%)
  Decreased appetite TEAE, any grade: 21 (33.9) n (%)
  Decreased appetite TEAE, grade ≥3: 2 (3.2) n (%)
  Decreased appetite TRAE, any grade: 17 (27.4) n (%)
  Decreased appetite TRAE, grade ≥3: 1 (1.6) n (%)
  Dehydration TEAE, any grade: 8 (12.9) n (%)
  Dehydration TEAE, grade ≥3: 0 n (%)
  Diarrhea TEAE, any grade: 36 (58.1) n (%)
  Diarrhea TEAE, grade ≥3: 4 (6.5) n (%)
  Diarrhea TRAE, any grade: 31 (50.0) n (%)
  Diarrhea TRAE, grade ≥3: 4 (6.5) n (%)
  Dizziness TEAE, any grade: 10 (16.1) n (%)
  Dizziness TEAE, grade ≥3: 0 n (%)
  Dizziness TRAE, any grade: 6 (9.7) n (%)
  Dizziness TRAE, grade ≥3: 0 n (%)
  Dry mouth TEAE, any grade: 7 (11.3) n (%)
  Dry mouth TEAE, grade ≥3: 0 n (%)
  Dry mouth TRAE, any grade: 7 (11.3) n (%)
  Dry mouth TRAE, grade ≥3: 0 n (%)
  Dysphonia TEAE, any grade: 16 (25.8) n (%)
  Dysphonia TEAE, grade ≥3: 0 n (%)
  Dysphonia TRAE, any grade: 12 (19.4) n (%)
  Dysphonia TRAE, grade ≥3: 0 n (%)
  Dyspnea TEAE, any grade: 5 (8.1) n (%)
  Dyspnea TEAE, grade ≥3: 1 (1.6) n (%)
  Edema peripheral TEAE, any grade: 6 (9.7) n (%)
  Edema peripheral TEAE, grade ≥3: 0 n (%)
  Endocrine disorders TEAE, any grade: 20 (32.3) n (%)
  Fatigue TEAE, any grade: 26 (41.9) n (%)
  Fatigue TEAE, grade ≥3: 7 (11.3) n (%)
  Fatigue TRAE, any grade: 21 (33.9) n (%)
  Fatigue TRAE, grade ≥3: 6 (9.7) n (%)
  Gastrointestinal disorders TEAE, any grade: 53 (85.5) n (%)
  General disorders and administration site conditions TEAE, any grade: 38 (61.3) n (%)
  General disorders and administration site conditions TEAE, grade ≥3: 8 (12.9) n (%)
  Headache TEAE, grade ≥3: 1 (1.6) n (%)
  Hypertension TEAE, any grade: 25 (40.3) n (%)
  Hypertension TEAE, grade ≥3: 12 (19.4) 12 (19.4) n (%)
  Hypertension TRAE, any grade: 24 (38.7) n (%)
  Hypertension TRAE, grade ≥3: 11 (17.7) n (%)
  Hypokalemia TEAE, any grade: 4 (6.5) n (%)
  Hypokalemia TEAE, grade ≥3: 0 n (%)
  Hypomagnesemia TEAE, any grade: 4 (6.5) n (%)
  Hypomagnesemia TEAE, grade ≥3: 0 n (%)
  Hyponatremia TEAE, any grade: 6 (9.7) n (%)
  Hyponatremia TEAE, grade ≥3: 3 (4.8) n (%)
  Hypophosphatemia TEAE, any grade: 3 (4.8) n (%)
  Hypophosphatemia TEAE, grade ≥3: 1 (1.6) n (%)
  Hypothyroidism TEAE, any grade: 19 (30.6) n (%)
  Hypothyroidism TRAE, any grade: 14 (22.6) n (%)
  Hypothyroidism TRAE, grade ≥3: 0 n (%)
  Infections and infestations TEAE, any grade: 18 (29.0) n (%)
  Infections and infestations TEAE, grade ≥3: 7 (11.3) n (%)
  Injury, poisoning, procedural complications TEAE, any grade: 11 (17.7) n (%)
  Injury, poisoning, procedural complications TEAE, grade ≥3: 0 n (%)
  Investigations TEAE, any grade: 34 (54.8) n (%)
  Investigations TEAE, grade ≥3: 7 (11.3) n (%)
  Lipase increased TEAE, any grade: 8 (12.9) n (%)
  Lipase increased TEAE, grade ≥3: 3 (4.8) n (%)
  Metabolism and nutrition disorders TEAE, any grade: 38 (61.3) n (%)
  Metabolism and nutrition disorders TEAE, grade ≥3: 11 (17.7) n (%)
  Musculoskeletal and connective tissue disorders TEAE, any grade: 28 (45.2) n (%)
  Musculoskeletal and connective tissue disorders TEAE, grade ≥3: 2 (3.2) n (%)
  Nausea TEAE, any grade: 19 (30.6) n (%)
  Nausea TEAE, grade ≥3: 0 n (%)
  Nausea TRAE, any grade: 14 (22.6) n (%)
  Nausea TRAE, grade ≥3: 0 n (%)
  Neoplasms benign, malignant, unspecified TEAE, any grade: 11 (17.7) n (%)
  Neoplasms benign, malignant, unspecified TEAE, grade ≥3: 8 (12.9) n (%)
  Nervous system disorders TEAE, any grade: 28 (45.2) n (%)
  Nervous system disorders TEAE, grade ≥3: 3 (4.8) n (%)
  PPE syndrome TEAE, any grade: 14 (22.6) n (%)
  PPE syndrome TEAE, grade ≥3: 6 (9.7) n (%)
  PPE syndrome TRAE, any grade: 13 (21.0) n (%)
  PPE syndrome TRAE, grade ≥3: 6 (9.7) n (%)
  Pain in extremity TEAE, any grade: 4 (6.5) n (%)
  Pain in extremity TEAE, grade ≥3: 0 n (%)
  Proteinuria TEAE, any grade: 13 (21.0) n (%)
  Proteinuria TEAE, grade ≥3: 2 (3.2) n (%)
  Proteinuria TRAE, any grade: 11 (17.7) n (%)
  Proteinuria TRAE, grade ≥3: 2 (3.2) n (%)
  Psychiatric disorders TEAE, any grade: 7 (11.3) n (%)
  Psychiatric disorders TEAE, grade ≥3: 2 (3.2) n (%)
  Rash TEAE, any grade: 9 (14.5) n (%)
  Rash TEAE, grade ≥3: 2 (3.2) n (%)
  Rash TRAE, any grade: 6 (9.7) n (%)
  Rash TRAE, grade ≥3: 2 (3.2) n (%)
  Renal and urinary disorders TEAE, any grade: 19 (30.6) n (%)
  Renal and urinary disorders TEAE, grade ≥3: 5 (8.1) n (%)
  Respiratory, thoracic and mediastinal disorders TEAE, any grade: 34 (54.8) n (%)
  Respiratory, thoracic and mediastinal disorders TEAE, grade ≥3: 3 (4.8) n (%)
  Serious TEAE: 21 (33.9) n (%)
  Serious TRAE: 5 (8.1) n (%)
  Skin and subcutaneous tissue disorders TEAE, any grade: 33 (53.2) n (%)
  Skin and subcutaneous tissue disorders TEAE, grade ≥3: 8 (12.9) n (%)
  Stomatitis TEAE, any grade: 11 (17.7) n (%)
  Stomatitis TEAE, grade ≥3: 1 (1.6) n (%)
  Stomatitis TRAE, any grade: 11 (17.7) n (%)
  Stomatitis TRAE, grade ≥3: 1 (1.6) n (%)
  TEAE grade ≥3: 45 (72.6) n (%)
  TEAE leading to death: 8 (12.9) n (%)
  TEAE leading to discontinuation: 12 (19.4) n (%)
  TEAE leading to treatment modification: 46 (74.2) n (%)
  TRAE grade ≥3: 32 (51.6) n (%)
  TRAE leading to death: 0 n (%)
  TRAE leading to discontinuation: 7 (11.3) n (%)
  TRAE leading to treatment modification: 42 (67.7) n (%)
  UTI TEAE, any grade: 6 (9.7) n (%)
  UTI TEAE, grade ≥3: 1 (1.6) n (%)
  Vascular disorders TEAE, any grade: 32 (51.6) n (%)
  Vascular disorders TEAE, grade ≥3: 12 (19.4) 12 (19.4) n (%)
  Vomiting TEAE, any grade: 12 (19.4) n (%)
  Vomiting TEAE, grade ≥3: 0 n (%)
  Vomiting TRAE, any grade: 9 (14.5) n (%)
  Vomiting TRAE, grade ≥3: 0 n (%)
  Weight decreased TEAE, any grade: 10 (16.1) n (%)
  Weight decreased TEAE, grade ≥3: 0 n (%)
  Weight decreased TRAE, any grade: 7 (11.3) n (%)
  Weight decreased TRAE, grade ≥3: 0 n (%)
150 mg
  Patients discontinued due to TRAEs: 17.2%
150 mg arm
  Patients with grade ≥ 3 TRAEs: 61.6%
  Patients with serious TRAEs: 22.2%
150 mg phase 1b
  ALT increased TEAE, any grade: 25 (25.3) n (%)
  ALT increased TEAE, grade ≥3: 3 (3.0) n (%)
